In general, IC50 refers to the concentration that gives 50% inhibition.

The subject of test [1] is BMP response element (BRE) luciferase reporter in HuH7 cells, BMP6 stimulated. Briefly: BMP signaling reporter gene assay. Type of test: cell-based. Particulars: Homo sapiens, Huh-7; HuH7 BRE-luciferase, BMP6 100 ng/ml, 5 hours; read-out: MSD BMP RGA IC50. On the technique in general: Reporter assays use an easily measured gene product as a stand-in for the process of interest.

In the next test the target is ALK3 (aa198-525) (Homo sapiens (Human), UniProt P36894). Put plainly: ADPGlo biochemical autophosphorylation assay, ALK3. The note with it: 15 μm ATP, 60 min at 32° C. Background: ADP-Glo first removes unused ATP, then detects ADP through luciferase.
The target in the next test is ALK1 (aa166-493) (Homo sapiens (Human), UniProt P37023). Briefly: Caliper biochemical peptide phosphorylation assay, ALK1. The note with it: 15 μm ATP, 60 min at 30° C.; read-out: ALK1 EPK (IC50).
Test [2] has as its target T1, wild-type ALK2 (aa172-499) (Homo sapiens (Human), UniProt Q04771). Put plainly: ADPGlo biochemical autophosphorylation assay, ALK2. Particulars: 15 μm ATP, 60 min at 32° C.
The next test deals with ALK6 (aa168-495) (Homo sapiens (Human), UniProt O00238). Put plainly: Caliper biochemical peptide phosphorylation assay, ALK6. Particulars: 15 μm ATP, 60 min at 30° C.; read-out: ALK6 EPK (IC50).
In test [3] the target is T1, wild-type ALK2 (aa172-499). Put plainly: Caliper biochemical peptide phosphorylation assay, ALK2. The note with it: 15 μm ATP, 60 min at 30° C.; read-out: ALK2 EPK (IC50).
For another test, the target named is ALK5 (aa162-503) (Homo sapiens (Human), UniProt P36897). Put plainly: Caliper biochemical peptide phosphorylation assay, ALK5. Particulars: 15 μm ATP, 60 min at 30° C.; read-out: ALK5 EPK (IC50).
ALK5 (aa162-503), sequence (P36897 162-503): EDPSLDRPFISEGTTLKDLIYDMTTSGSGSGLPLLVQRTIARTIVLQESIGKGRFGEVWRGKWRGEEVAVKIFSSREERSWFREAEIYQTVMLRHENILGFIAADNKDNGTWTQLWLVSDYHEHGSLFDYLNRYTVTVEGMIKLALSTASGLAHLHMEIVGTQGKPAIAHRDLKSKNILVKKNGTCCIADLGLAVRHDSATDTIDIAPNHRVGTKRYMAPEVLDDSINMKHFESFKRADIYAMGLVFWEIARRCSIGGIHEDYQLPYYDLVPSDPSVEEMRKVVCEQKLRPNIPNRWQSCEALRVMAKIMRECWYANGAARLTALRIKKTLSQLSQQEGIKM

T1 sequence (Q04771 172-499): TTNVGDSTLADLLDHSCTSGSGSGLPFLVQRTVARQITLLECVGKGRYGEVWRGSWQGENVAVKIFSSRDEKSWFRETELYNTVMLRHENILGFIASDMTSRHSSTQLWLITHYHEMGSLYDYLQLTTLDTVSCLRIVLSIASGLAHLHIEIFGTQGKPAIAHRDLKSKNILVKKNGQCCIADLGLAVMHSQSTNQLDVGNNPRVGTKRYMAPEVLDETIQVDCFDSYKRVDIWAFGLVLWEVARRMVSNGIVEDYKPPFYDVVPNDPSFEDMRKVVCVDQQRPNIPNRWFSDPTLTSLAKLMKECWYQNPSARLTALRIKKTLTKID
ALK3 (aa198-525), sequence (P36894 198-525): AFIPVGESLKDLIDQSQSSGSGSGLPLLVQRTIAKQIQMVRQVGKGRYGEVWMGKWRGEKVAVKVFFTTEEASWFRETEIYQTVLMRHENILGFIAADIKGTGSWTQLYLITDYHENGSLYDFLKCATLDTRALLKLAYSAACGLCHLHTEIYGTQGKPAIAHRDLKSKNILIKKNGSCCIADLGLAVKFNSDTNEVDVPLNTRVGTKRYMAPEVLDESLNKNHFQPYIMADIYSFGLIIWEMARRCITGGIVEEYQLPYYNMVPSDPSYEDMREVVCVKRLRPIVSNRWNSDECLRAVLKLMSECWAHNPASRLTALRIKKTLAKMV
ALK1 (aa166-493), sequence (P37023 166-493): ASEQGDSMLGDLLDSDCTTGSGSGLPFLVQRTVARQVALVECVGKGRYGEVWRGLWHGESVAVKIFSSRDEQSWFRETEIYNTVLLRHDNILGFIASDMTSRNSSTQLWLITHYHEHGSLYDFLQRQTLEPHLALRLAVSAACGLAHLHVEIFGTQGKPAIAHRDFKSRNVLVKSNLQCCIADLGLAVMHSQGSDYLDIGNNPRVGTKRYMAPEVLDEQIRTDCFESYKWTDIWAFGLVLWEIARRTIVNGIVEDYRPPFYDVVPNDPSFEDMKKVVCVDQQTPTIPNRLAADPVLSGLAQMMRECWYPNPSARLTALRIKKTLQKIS
ALK6 (aa168-495), sequence (O00238 168-495): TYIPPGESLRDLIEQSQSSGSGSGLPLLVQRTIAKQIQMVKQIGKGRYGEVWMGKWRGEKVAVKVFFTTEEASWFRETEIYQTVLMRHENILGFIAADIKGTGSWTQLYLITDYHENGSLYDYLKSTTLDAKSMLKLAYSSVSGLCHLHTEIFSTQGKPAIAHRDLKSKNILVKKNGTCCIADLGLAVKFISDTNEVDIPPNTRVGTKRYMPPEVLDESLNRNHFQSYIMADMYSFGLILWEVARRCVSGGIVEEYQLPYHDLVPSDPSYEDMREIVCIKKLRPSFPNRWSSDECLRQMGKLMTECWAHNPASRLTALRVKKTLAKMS

Turning to `Nc1ncc(-c2ccc([C@@]34C[C@@H]3CN(CC3COC3)C4)cc2)cc1C(=O)N[C@H]1CC[C@H](O)CC1` [Example 70, 2-amino-N-((1r,4R)-4-hydroxycyclohexyl)-5-(4-((1R,5S)-3-(oxetan-3-ylmethyl)-3-azabicyclo[3.1.0]hexan-1-yl)phenyl)nicotinamide], the IC50 in test [1] turned out to be 513 nM; at ALK3 (aa198-525) it was 2850 nM; on ALK1 (aa166-493), 305 nM; in test [2], 20 nM; on ALK6 (aa168-495) it was 8750 nM; in test [3] it was 68 nM. On ALK5 (aa162-503), the IC50 was found to be 9400 nM.
With `CS(=O)(=O)N1CCC(N2C[C@H]3C[C@@]3(c3ccc(-c4cnc(N)c(C(=O)N[C@H]5CC[C@H](O)CC5)c4)cc3)C2)CC1` [Example 1, 2-amino-N-((1r,4R)-4-hydroxycyclohexyl)-5-(4-((1R,5S)-3-(1-(methylsulfonyl)piperidin-4-yl)-3-azabicyclo[3.1.0]hexan-1-yl)phenyl)nicotinamide], the IC50 in test [1] is 76 nM; against ALK3 (aa198-525), 310 nM; at ALK1 (aa166-493), 75 nM; in test [2], 5 nM; at ALK6 (aa168-495), 740 nM; in test [3], 9 nM. The IC50 on ALK5 (aa162-503) came to 560 nM.
Take `C[C@@H]1CCCN1Cc1ccc(-c2cnc(N)c(C(=O)N[C@H]3CC[C@H](O)CC3)c2)cc1` [Example 31, 2-amino-N-((1r,4R)-4-hydroxycyclohexyl)-5-(4-(((R)-2-methylpyrrolidin-1-yl)methyl)phenyl)nicotinamide]: the IC50 in test [1] stood at 115 nM; at ALK3 (aa198-525), 1200 nM; at ALK1 (aa166-493) it was 230 nM; in test [2], 13 nM; on ALK6 (aa168-495), 4500 nM; in test [3], 20 nM. Moreover, the IC50 at ALK5 (aa162-503) is 3500 nM.
With `Nc1ncc(-c2ccc([C@]34C[C@H]3CN(C3CCC(F)(F)CC3)C4)cc2)cc1C(=O)NC12CCC(O)(CC1)CC2` [Example 35, 2-amino-5-(4-((1S,5R)-3-(4,4-difluorocyclohexyl)-3-azabicyclo[3.1.0]hexan-1-yl)phenyl)-N-(4-hydroxybicyclo[2.2.2]octan-1-yl)nicotinamide], the IC50 in test [1] amounted to 73 nM; against ALK3 (aa198-525), 903 nM; at ALK1 (aa166-493) it was 283 nM; in test [2], 17 nM; at ALK6 (aa168-495), 4500 nM; in test [3], 21 nM. The IC50 on ALK5 (aa162-503) turned out to be 5720 nM.
Turning to `CC#CCN1C[C@@H]2C[C@]2(c2ccc(-c3cnc(N)c(C(=O)N[C@H]4CC[C@H](O)CC4)c3)cc2)C1` [Example 37, 2-amino-5-(4-((1S,5R)-3-(but-2-yn-1-yl)-3-azabicyclo[3.1.0]hexan-1-yl)phenyl)-N-((1r,4S)-4-hydroxycyclohexyl)nicotinamide], the IC50 worked out at 37 nM in test [1]; 960 nM against ALK3 (aa198-525); 100 nM at ALK1 (aa166-493); 8 nM in test [2]; 1700 nM at ALK6 (aa168-495); 27 nM in test [3]. Also, the IC50 on ALK5 (aa162-503) stood at 1100 nM.
As to `Nc1ncc(-c2ccc([C@@]34C[C@@H]3CN(C3CCN(CC(F)(F)F)CC3)C4)cc2)cc1C(=O)N[C@H]1CC[C@H](O)CC1` [Example 39, 2-amino-N-((1r,4R)-4-hydroxycyclohexyl)-5-(4-((1R,5S)-3-(1-(2,2,2-trifluoroethyl)piperidin-4-yl)-3-azabicyclo[3.1.0]hexan-1-yl)phenyl)nicotinamide], the IC50 in test [1] came to 78 nM; on ALK3 (aa198-525), 830 nM; on ALK1 (aa166-493), 190 nM; in test [2], 13 nM; on ALK6 (aa168-495) it was 2000 nM; in test [3], 24 nM. Further, the IC50 on ALK5 (aa162-503) amounted to 1600 nM.

For the origin of these results see patent US10710980B2, “Aminopyridine derivatives and their use as selective ALK-2 inhibitors” (priority 2016, dated 2020).
